These are literature values, as cited in patent US20150040249A1, “Non-Human Animal Models of Depression and Methods of Use Thereof” (The Board of Trustees of the Leland Stanford Junior …, priority 2012, published 2015).

Series [1] concerns NMDAR. The note with it: humans; acute.
For series [2] the following is noted: rats; in vivo electrophysiological recordings.

For `CNC1(c2ccccc2Cl)CCCCC1=O` (centres unmarked) [ketamine], the depression-like symptoms result in series [1] is “can acutely improve depression-like symptoms”.
As for `CNCCCN1c2ccccc2CCc2ccccc21` [desipramine], the “reduced bursting activity in depression models” value in series [2] is on record as “restored”.
